Source: BigSolDB 2.1

O=[N+]([O-])c1ccc(O)c2ncccc12
solubility (mole fraction)
Settings | in isopropanol | in methanol | in n-butanol | in n-propanol | in toluene
278.15 K | 0.0005 | 0.000443 | 0.000606 | 0.000562 | 0.00229
280.65 K | 0.000548 | 0.000486 | 0.000663 | 0.000608 | 0.00247
283.15 K | 0.000605 | 0.000531 | 0.000726 | 0.000675 | 0.00269
285.65 K | 0.000672 | 0.000586 | 0.000797 | 0.000748 | 0.00293
288.15 K | 0.000741 | 0.000643 | 0.000867 | 0.000814 | 0.00317
290.65 K | 0.000816 | 0.000701 | 0.000961 | 0.000899 | 0.00345
293.15 K | 0.000897 | 0.000763 | 0.00105 | 0.00099 | 0.00377
295.65 K | 0.000974 | 0.00083 | 0.00116 | 0.00109 | 0.00408
298.15 K | 0.00107 | 0.000904 | 0.00128 | 0.00119 | 0.00444
300.65 K | 0.00118 | 0.000981 | 0.00139 | 0.00131 | 0.00481
303.15 K | 0.00129 | 0.00107 | 0.00153 | 0.00143 | 0.00518
305.65 K | 0.00141 | 0.00116 | 0.00166 | 0.00157 | 0.00562
308.15 K | 0.00154 | 0.00127 | 0.0018 | 0.0017 | 0.00609
310.65 K | 0.00168 | 0.00138 | 0.00197 | 0.00186 | 0.0066
313.15 K | 0.00183 | 0.00149 | 0.00217 | 0.00204 | 0.00715
